Test results as given in patent publication US5747545A, “Method of preventing NMDA receptor complex-mediated Neuronal damage” (priority 1995, dated 1998).
Entries after “also recorded” stand apart in the source; their conditions may differ. One block for each compound: values may come before it.

What was measured:
[1] = tested on: NMDA receptor (cortical neurons); experiment: Patch-clamp recording of NMDA-evoked current in cortical neurons; type: cell-based, rat (Sprague-Dawley); conditions: for Effect on NMDA-evoked current: 50 μM NMDA + 1 μM glycine, -60 mV, DTT 2 mM, NTG 500 μM, DTNB 500 μM, 2 min exposure, washout, FIG. 4
[2] = tested on: NMDA receptor (rat cortical neurons in culture); experiment: Digital fura-2 imaging of NMDA-evoked intracellular [Ca2+] in cultured cortical neurons; type: cell-based, rat (Sprague-Dawley); conditions: for Effect on NMDA-evoked [Ca2+]i response (SNOC experiment): after 2 mM DTT, 3 min exposure to 100 μM SNOC, NMDA 50 μM, FIG. 5A, P<0.01
[3] = tested on: cortical neurons (NMDA receptor-mediated neurotoxicity); experiment: Neurotoxicity assay: survival of cortical neurons after DTT and NMDA exposure; type: cell-based, rat; conditions: chemical reduction of redox modulatory site
Experimental: To test compounds for their ability to prevent neurotoxicity, neuronal cell death may be assayed as follows. […] The candidate compound is tested by addition (e.g., in a series of concentrations ranging from 0.1 nM-10 mM) after DTT treatment but before NMDA treatment. The candidate compound can be added for minutes, hours, or even days prior to its washout period. […] Neuronal cultures are scored for cell survival after this overnight incubation because NMDA toxicity is often delayed by several hours following NMDA exposure.
Using the neurotoxicity assay described above, the compounds sodium nitroprusside and nitroglycerin were tested individually for their ability to increase survival of neonatal cortical neurons.
As shown in FIG. 6A-6D, surviving neurons are expressed as the percentage of viable neurons in the control culture dishes in the same experiment. The concentrations of drugs were as follows: APV (2 mM), NTG (100 μM), SNP (400 μM), DTT (0.5-2 mM), and reduced Hb (500 μM). […] Values are mean ±SEM for experiments run in triplicate on sibling cultures on separate days (total of 32 experiments). Astericks indicate significant difference compared with the value for DTT-NMDA exposure, P<0.05 (ANOVA followed by Scheffe multiple comparison of means.

[4] = tested on: NMDA receptor (rat cortical neurons in culture); experiment: Digital fura-2 imaging of NMDA-evoked intracellular [Ca2+] in cultured cortical neurons; type: cell-based, rat (Sprague-Dawley); conditions: 50 μM NMDA; Examples 1-2; NTG 100 μM in Example 2
Experimental: The concentration of intracellular free Ca^2+ ([Ca^2+ ]i) is measured in neonatal cortical neurons by digital imaging microscopy with the Ca^2+ sensitive fluorescent dye fura 2, as follows. The same cortical neuronal cultures as described above are used. During Ca^2+ measurements, unless otherwise stated the fluid bathing the neurons consists of Hanks' balanced salts: 137.6 mM NaCl, 1 mM NaHCO3, 0.34 mM Na2 HPO4, 0.44 mM KH2 PO4, 5.36 mM KCl, 1.25 mM CaCl2, 0.5 mM MgSO4, 0.5 mM MgCl2, 5 mM Hepes NaOH, 22.2 mM glucose, and sometimes with phenol red indicator (0.001% v/v); pH 7.2. NMDA (in the absence Mg^++), glutamate, and other substances are usually applied to the neurons by pressure ejection after dilution in this bath solution. Neuronal [Ca^2+ ]i is analyzed with fura 2-acetoxy-methyl ester (AM) as described [Grynkiewicz, et al., J. Biol. Chem. 260:3440 (1985); Williams et al., Nature 318:558 (1985); Connor et al., J. Neurosci. 7:1384 (1987); Connor et al., Science 240:649 (1988); Cohan et al., J. Neurosci. 7:3588 (1987); Mattson, et al., ibid, 9:3728 (1989)]. After adding Eagle's minimum essential medium containing 10 μM fura 2-AM to the neurons, the cultures are incubated at 37° C. in a 5% CO2 /95% air humidified chamber and then rinsed. The dye is loaded, trapped, and deesterified within 1 hour, as determined by stable fluorescence ratios and the effect of the Ca^2+ ionophore ionomycin on [Ca^2+ ]i is measured. During Ca^2+ imaging, the cells are incubated in a solution of Hepes-buffered saline with Hanks' balanced salts. The [Ca^2+ ]i is calculated from ratio images that are obtained by measuring the fluorescence at 500 nm that is excited by 350 and 380 nm light with a DAGE MTI 66 SIT or QUANTEX QX-100 Intensified CCD camera mounted on a Zeiss Axiovert 35 microscope. Exposure time for each picture is 500 ms. Analysis is performed with a Quantex (Sunnyvale, Calif.) QX7-210 image-processing system. Since cells are exposed to ultraviolet light only during data collection (generally less than a total of 20 s per cell), bleaching of fura 2 is minimal.
In this experiment, the effect of NTG on intracellular [Ca^++ ] increases induced by NMDA were followed using digital [Ca^++ ] imaging techniques, based on the dye fura-2.
Specifically, the model for NMDA-mediated neurotoxicity involves exposure of cultured rat cortical neurons to NMDA in the presence of glycine (a co-agonist).
Cortical cultures were derived from embryonic (fetal day 15 or 16) Sprague-Dawley rats as described previously (Dichter, 1978; Rosenberg and Aizenman, 1989). […]

[5] = adult treated for Parkinson's symptoms for several weeks; reversible after discontinuation; cited from earlier work
[6] = tested on: cortical neurons (neuronal survival); conditions: SNOC or purified peroxynitrite incubation; listed as OONO^-
Experimental: S-nitrosocysteine was added as a source of NO.cndot. to cerebrocortical cultures (Lei et al., (1992) Neuron 8:1087-1099; Stamler et al., (1992) Science 258:1898-1902).
Peroxynitrite leads to lipid peroxidation and massive oxidation of sulfhydryls (Radi et al., (1991) J. Biol. Chem. 266:4244-4250; Radi et al., (1991) Arch. Biochem. Biophys. 288:481-487).
Values are expressed as mean+s.e.m. (n=9). Statistical comparisons were performed by an analysis of variance followed by a Scheffe multiple comparison of means (*, P<0.01 compared to control; **, P<0.05 compared to control; .dagger., P<0.01 compared to nitroso compound+SOD/catalase).
Specifically, the data in FIG. 7 were generated using mixed neuronal and glial cortical cultures from neonatal rats, as described previously (Lei, et al., (1992) Neuron 8:1087-1099). In at least three separate experiments, triplicate cultures were incubated overnight in Earle's buffered saline solution (EBSS) containing various concentrations of SNOC, peroxynitrite, SOD, catalase, or glutamate. […] The culture fluid was assayed for […] (LDH) as an indicator of neuronal survival by measuring the absorbance at 450 nm (Koh et al., (1987) J. Neurosci. Meth. 20:83-90). The cultures were also scored for neuronal viability by cell counting, generally with 0.2% trypan blue, after fixation in 2.5% glutaraldehyde, as described above. Neurons from cultures grown on 15 mm diameter cover slips were counted in a masked fashion in ~30 microscopic fields at 200 x.

Effect on NMDA-evoked [Ca2+]i response [4]: reversed the effect of NTG
SMILES: O[C@H](CS)[C@H](O)CS (racemic) [DTT, dithiothreitol]
Effect on NMDA-evoked current [1]: enhanced the NMDA-evoked current; also recorded: increased NMDA-activated currents
Effect on NMDA-evoked [Ca2+]i response (SNOC experiment) [2]: the NMDA-evoked response was increased; also recorded: fully reversed the inhibitory effect of S-nitrosocysteine
Effect on neurotoxic effect of NMDA [3]: increases the neurotoxic effect of NMDA

Effect on NMDA-evoked [Ca2+]i response [4]: further enhanced
SMILES: O[C@H](CS)[C@H](O)CS (relative stereo) [dithiothreitol (DTT)]

SMILES: O=C(O)c1cc(SSc2ccc([N+](=O)[O-])c(C(=O)O)c2)ccc1[N+](=O)[O-] [DTNB, 5,5dithio-bis-2-nitrobenzoic acid]
Effect on NMDA-evoked current [1]: decreased the responses slightly
Effect on amplitude of NMDA evoked current following alkylation with NEM ([1]; after 1-5 mM NEM): neither NTG nor DTNB significantly affected the amplitude of NMDA evoked current
Effect on NMDA-evoked [Ca2+]i response [4]: decreased the NMDA evoked [Ca^2+ ]i responses

SMILES: CCN1C(=O)C=CC1=O [NEM, N-ethylmalemide]
Effect of NEM pretreatment on the SNOC effect on NMDA-evoked [Ca2+]i ([2]; NEM pretreatment, FIG. 5B): blocks the effect of SNOC

SMILES: CN[C@H](CC(=O)O)C(=O)O [NMDA, N-methyl-D-aspartate]
Maximum NMDA response obtained after exposure to DTT, [Ca2+]i ([2]; NMDA 50 μM after 2 mM DTT, FIG. 5): ~ 750 nM [Ca2+]i

Effect on NMDA-evoked [Ca2+]i response (SNOC experiment) [2]: inhibited
SMILES: NC(CSN=O)C(=O)O (stereo not shown) [S-nitrosocysteine (SNOC)]

SMILES: Cl.NC12CC3CC(CC(C3)C1)C2 [amantadine, 1-adamantanamine hydrochloride]
Visual loss (case report) [5]: one case report of visual loss in an adult patient

SMILES: O=NOO [peroxynitrite]
Killing of cortical neurons [6]: kills neurons in a dose-dependent fashion
